Results reported in ChEMBL document CHEMBL5463725, “Data for DCP probe BAY-277” (2023).
Calls of active or inactive are those of the source. No cut-off for these calls is given here.

Key:
[1] = biological target: Tribbles homolog 2 (Homo sapiens) (UniProt Q92519); experiment: Inhibition of TRB2(h) at 10.0 µM in the Eurofins Kinase panel; details: Compound concentration 10.0 uM
[2] = biological target: Serine/threonine-protein kinase DCLK3 (Homo sapiens) (UniProt Q9C098); experiment: Inhibition of DCAMKL3(h) at 10.0 µM in the Eurofins Kinase panel; details: Compound concentration 10.0 uM
[3] = biological target: Serine/threonine-protein kinase Nek5 (Homo sapiens) (UniProt Q6P3R8); experiment: Inhibition of NEK5(h) at 10.0 µM in the Eurofins Kinase panel; details: Compound concentration 10.0 uM
[4] = biological target: MAP kinase-activated protein kinase 3 (Homo sapiens) (UniProt Q16644); experiment: Inhibition of MAPKAP-K3(h) at 10.0 µM in the Eurofins Kinase panel; details: Compound concentration 10.0 uM
[5] = biological target: Serine/threonine-protein kinase Sgk3 (Homo sapiens) (UniProt Q96BR1); experiment: Inhibition of SGK3(h) at 10.0 µM in the Eurofins Kinase panel; details: Compound concentration 10.0 uM
[6] = biological target: SRSF protein kinase 3 (Homo sapiens) (UniProt Q9UPE1); experiment: Inhibition of MSSK1(h) at 10.0 µM in the Eurofins Kinase panel; details: Compound concentration 10.0 uM
[7] = biological target: Protein kinase C alpha type (Homo sapiens) (UniProt P17252); experiment: Inhibition of PKCalpha(h) at 10.0 µM in the Eurofins Kinase panel; details: Compound concentration 10.0 uM
[8] = biological target: Serine/threonine-protein kinase ICK (Homo sapiens) (UniProt Q9UPZ9); experiment: Inhibition of ICK(h) at 10.0 µM in the Eurofins Kinase panel; details: Compound concentration 10.0 uM
[9] = biological target: Cyclin-dependent kinase-like 2 (Homo sapiens) (UniProt Q92772); experiment: Inhibition of CDKL2(h) at 10.0 µM in the Eurofins Kinase panel; details: Compound concentration 10.0 uM
[10] = biological target: Tyrosine-protein kinase Lck (Homo sapiens) (UniProt P06239); experiment: Inhibition of Lck(h) activated at 10.0 µM in the Eurofins Kinase panel; details: Compound concentration 10.0 uM
[11] = biological target: D(3) dopamine receptor (Homo sapiens, UniProt P35462); experiment: GPCRScan assay: inhibition of D3; parameters: radioligand conc. used [nm] 0.5 – 1.8, parental cells HEKT
[12] = biological target: Methionine aminopeptidase 2 (Homo sapiens, UniProt P50579); experiment: Degradation in HUVEC cells (WB) Dmax (Western Blot (WB)); assay type: functional, cell-based
[13] = biological target: 3-hydroxy-3-methylglutaryl-coenzyme A reductase (Homo sapiens) (UniProt P04035); experiment: Inhibition of HMG-CoA Reductase at 10.0 µM in the Eurofins Panlabs Safety Screen; details: Compound concentration 10.0 uM
[14] = biological target: Tyrosine-protein kinase JAK2 (Homo sapiens) (UniProt O60674); experiment: Inhibition of JAK2(h) at 10.0 µM in the Eurofins Kinase panel; details: Compound concentration 10.0 uM
[15] = biological target: Ribosomal protein S6 kinase alpha-5 (Homo sapiens) (UniProt O75582); experiment: Inhibition of MSK1(h) at 10.0 µM in the Eurofins Kinase panel; details: Compound concentration 10.0 uM
[16] = biological target: Serine/threonine-protein kinase Sgk2 (Homo sapiens) (UniProt Q9HBY8); experiment: Inhibition of SGK2(h) at 10.0 µM in the Eurofins Kinase panel; details: Compound concentration 10.0 uM
[17] = system: Arachidonate 15-lipoxygenase B ALOX15B (Homo sapiens); experiment: Inhibition of Lipoxygenase 15-LOX-2 at 10.0 µM in the Eurofins Panlabs Safety Screen; details: Compound concentration 10.0 uM
[18] = biological target: Tyrosine-protein kinase Yes (Homo sapiens) (UniProt P07947); experiment: Inhibition of Yes(h) at 10.0 µM in the Eurofins Kinase panel; details: Compound concentration 10.0 uM
[19] = biological target: Vascular endothelial growth factor receptor 3 (Homo sapiens) (UniProt P35916); experiment: Inhibition of Flt4(h) at 10.0 µM in the Eurofins Kinase panel; details: Compound concentration 10.0 uM
[20] = biological target: Methionine aminopeptidase 2 (Mus musculus, UniProt O08663); experiment: METAP2 biochemical assay (mouse)

D(3) dopamine receptor, sequence (P35462 whole entry): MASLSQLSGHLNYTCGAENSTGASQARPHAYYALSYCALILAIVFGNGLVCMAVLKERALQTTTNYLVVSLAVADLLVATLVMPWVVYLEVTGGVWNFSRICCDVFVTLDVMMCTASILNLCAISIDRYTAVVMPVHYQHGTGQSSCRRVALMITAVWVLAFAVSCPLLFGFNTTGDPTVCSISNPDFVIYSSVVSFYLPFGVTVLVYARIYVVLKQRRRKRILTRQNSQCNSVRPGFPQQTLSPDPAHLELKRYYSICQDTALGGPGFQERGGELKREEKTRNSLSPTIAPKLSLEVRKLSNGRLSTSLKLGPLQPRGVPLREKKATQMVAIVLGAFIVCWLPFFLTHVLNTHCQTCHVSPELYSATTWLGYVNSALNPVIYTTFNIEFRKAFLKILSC
Cyclin-dependent kinase-like 2 (Homo sapiens), sequence (Q92772 whole entry): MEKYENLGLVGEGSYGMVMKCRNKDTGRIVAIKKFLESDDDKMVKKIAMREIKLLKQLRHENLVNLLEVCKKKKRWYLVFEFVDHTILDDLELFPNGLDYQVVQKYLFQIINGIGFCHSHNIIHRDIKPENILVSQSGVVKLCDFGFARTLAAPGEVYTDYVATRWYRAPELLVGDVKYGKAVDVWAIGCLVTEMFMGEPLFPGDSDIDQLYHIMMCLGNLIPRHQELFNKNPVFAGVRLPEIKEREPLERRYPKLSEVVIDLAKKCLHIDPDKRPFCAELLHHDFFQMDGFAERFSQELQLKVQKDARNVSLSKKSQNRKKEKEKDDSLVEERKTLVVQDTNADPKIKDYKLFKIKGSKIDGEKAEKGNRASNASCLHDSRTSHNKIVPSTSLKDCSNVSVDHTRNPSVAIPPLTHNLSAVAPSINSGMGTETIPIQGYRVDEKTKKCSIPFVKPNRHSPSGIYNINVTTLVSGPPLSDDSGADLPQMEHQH
Tyrosine-protein kinase Lck (Homo sapiens), sequence (P06239 2-509 limits assumed): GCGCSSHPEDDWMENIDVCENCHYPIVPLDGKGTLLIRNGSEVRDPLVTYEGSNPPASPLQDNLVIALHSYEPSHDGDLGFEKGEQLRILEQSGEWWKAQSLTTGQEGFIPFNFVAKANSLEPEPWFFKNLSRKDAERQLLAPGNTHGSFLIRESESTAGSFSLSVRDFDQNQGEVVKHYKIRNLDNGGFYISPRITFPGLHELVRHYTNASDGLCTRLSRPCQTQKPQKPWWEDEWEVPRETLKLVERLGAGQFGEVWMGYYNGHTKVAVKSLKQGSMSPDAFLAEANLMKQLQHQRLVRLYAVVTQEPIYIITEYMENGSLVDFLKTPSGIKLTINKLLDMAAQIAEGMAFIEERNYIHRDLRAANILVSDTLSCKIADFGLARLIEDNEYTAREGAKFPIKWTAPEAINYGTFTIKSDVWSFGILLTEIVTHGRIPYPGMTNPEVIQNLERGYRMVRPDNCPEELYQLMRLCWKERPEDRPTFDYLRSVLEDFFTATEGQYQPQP
Vascular endothelial growth factor receptor 3 (Homo sapiens), sequence (P35916 whole entry): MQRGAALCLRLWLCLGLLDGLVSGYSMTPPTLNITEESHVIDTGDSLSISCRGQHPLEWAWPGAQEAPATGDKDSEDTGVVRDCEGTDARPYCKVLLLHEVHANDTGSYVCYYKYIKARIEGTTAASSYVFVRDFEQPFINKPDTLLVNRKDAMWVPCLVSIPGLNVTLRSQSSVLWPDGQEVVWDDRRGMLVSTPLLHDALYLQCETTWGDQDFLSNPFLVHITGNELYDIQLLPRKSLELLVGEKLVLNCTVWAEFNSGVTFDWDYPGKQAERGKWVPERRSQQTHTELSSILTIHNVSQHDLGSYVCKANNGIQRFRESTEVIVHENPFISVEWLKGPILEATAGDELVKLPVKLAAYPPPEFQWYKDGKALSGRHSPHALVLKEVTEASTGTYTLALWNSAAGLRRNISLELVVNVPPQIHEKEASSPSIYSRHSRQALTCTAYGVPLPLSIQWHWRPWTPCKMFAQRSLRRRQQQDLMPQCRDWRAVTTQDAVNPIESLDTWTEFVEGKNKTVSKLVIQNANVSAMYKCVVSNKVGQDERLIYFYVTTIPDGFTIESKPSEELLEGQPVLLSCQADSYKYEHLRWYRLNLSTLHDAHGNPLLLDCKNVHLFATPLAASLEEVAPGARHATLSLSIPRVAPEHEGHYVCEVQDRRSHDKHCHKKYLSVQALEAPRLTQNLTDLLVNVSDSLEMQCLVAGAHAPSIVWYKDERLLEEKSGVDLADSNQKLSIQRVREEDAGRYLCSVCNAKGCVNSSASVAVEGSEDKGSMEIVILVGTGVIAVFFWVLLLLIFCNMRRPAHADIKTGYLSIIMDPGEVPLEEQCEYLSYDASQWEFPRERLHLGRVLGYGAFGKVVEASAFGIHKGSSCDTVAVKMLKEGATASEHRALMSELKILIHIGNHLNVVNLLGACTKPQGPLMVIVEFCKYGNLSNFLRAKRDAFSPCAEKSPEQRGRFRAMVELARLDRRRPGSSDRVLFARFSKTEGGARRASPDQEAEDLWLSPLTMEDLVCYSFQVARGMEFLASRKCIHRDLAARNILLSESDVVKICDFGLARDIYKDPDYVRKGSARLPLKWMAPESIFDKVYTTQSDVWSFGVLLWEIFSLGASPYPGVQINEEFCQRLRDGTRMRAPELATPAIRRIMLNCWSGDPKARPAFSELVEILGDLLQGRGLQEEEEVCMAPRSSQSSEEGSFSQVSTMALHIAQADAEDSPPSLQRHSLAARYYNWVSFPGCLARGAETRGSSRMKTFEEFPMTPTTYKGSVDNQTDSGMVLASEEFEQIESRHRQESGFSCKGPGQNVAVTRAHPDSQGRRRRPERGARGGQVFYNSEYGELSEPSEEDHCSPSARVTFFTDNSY
Serine/threonine-protein kinase Sgk3 (Homo sapiens), sequence (Q96BR1 whole entry): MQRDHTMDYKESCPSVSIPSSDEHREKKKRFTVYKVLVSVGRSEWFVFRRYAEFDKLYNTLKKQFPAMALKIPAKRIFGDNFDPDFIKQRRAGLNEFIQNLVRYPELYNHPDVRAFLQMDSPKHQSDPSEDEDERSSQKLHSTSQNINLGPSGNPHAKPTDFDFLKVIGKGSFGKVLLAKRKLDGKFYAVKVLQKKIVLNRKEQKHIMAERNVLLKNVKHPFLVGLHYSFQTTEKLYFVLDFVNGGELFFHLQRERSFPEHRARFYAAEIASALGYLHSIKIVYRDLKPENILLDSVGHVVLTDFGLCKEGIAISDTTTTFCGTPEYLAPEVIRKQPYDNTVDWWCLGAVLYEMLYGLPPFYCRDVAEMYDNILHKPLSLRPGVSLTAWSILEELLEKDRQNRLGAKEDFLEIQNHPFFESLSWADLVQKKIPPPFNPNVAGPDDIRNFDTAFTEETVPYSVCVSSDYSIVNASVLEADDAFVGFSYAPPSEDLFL
Tribbles homolog 2 (Homo sapiens), sequence (Q92519 whole entry): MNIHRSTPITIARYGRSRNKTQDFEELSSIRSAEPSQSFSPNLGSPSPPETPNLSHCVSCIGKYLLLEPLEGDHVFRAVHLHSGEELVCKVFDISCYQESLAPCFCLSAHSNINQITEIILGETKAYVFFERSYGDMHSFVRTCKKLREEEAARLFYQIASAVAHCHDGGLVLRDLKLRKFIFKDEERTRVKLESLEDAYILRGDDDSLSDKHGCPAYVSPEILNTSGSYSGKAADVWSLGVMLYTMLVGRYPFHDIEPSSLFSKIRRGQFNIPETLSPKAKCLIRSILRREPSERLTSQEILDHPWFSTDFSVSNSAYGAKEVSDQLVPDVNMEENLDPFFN
3-hydroxy-3-methylglutaryl-coenzyme A reductase (Homo sapiens), sequence (P04035 whole entry): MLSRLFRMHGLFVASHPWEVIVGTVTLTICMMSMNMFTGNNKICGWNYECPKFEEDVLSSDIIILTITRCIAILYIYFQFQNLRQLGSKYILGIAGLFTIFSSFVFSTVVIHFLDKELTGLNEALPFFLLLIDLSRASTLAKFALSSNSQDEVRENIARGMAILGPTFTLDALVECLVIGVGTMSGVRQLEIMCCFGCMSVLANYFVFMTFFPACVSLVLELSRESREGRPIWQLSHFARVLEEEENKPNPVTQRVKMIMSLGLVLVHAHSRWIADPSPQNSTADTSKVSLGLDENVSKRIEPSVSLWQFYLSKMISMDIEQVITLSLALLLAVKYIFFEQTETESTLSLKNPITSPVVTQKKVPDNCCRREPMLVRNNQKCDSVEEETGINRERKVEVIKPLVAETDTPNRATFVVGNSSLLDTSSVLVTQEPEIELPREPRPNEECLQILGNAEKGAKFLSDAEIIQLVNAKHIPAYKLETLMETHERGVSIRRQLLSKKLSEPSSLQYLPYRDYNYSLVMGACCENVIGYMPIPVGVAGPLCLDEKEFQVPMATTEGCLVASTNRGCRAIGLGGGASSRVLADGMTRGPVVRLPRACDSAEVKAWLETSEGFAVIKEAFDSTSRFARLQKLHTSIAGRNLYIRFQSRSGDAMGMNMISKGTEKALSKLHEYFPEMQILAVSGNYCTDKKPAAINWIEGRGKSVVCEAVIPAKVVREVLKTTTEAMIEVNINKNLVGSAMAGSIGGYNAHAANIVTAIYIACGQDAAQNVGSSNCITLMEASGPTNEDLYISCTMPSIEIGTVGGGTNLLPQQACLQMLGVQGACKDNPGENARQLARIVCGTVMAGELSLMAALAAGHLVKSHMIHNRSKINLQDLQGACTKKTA
Serine/threonine-protein kinase Sgk2 (Homo sapiens), sequence (Q9HBY8 whole entry): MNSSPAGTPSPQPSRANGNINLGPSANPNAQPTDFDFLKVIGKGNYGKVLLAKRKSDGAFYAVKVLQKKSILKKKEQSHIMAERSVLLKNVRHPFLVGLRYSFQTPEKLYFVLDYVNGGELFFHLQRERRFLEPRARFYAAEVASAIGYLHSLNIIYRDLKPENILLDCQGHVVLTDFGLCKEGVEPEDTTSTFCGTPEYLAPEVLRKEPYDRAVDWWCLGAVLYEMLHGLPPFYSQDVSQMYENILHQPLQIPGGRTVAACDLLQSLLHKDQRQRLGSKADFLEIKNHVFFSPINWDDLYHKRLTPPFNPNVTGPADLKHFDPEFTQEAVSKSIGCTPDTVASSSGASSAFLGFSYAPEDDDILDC

O=C1NCCCC1N1Cc2cc(C3CCN(C(=O)CCCCCN4CCC(c5ccc(Oc6nn7cnnc7c7c6CCCC7)cc5)CC4)CC3)ccc2C1=O (stereo unspecified)
inhibition [1]: 10.9%
inhibition [2]: 10.5%
inhibition [3]: 17.5%
inhibition [4]: 11.4%
inhibition [5]: 13.4%
inhibition [6]: 12.1%
inhibition [7]: 12.8%
inhibition [8]: 10.1%
inhibition [9]: 17.6%
inhibition [10]: 13.3%
Ki ([11]; read-out: Ki): 0.525 µM
Ki ([11]; read-out: pKi (converted)): 0.49 µM

O=C1CCC(N2Cc3cc(C4CCN(C(=O)CCCCCN5CCC(c6ccc(Oc7nn8cnnc8c8c7CCCC8)cc6)CC5)CC4)ccc3C2=O)C(=O)N1 (stereo unspecified)
DCmax [12]: 94%
inhibition [13]: 12%
inhibition [14]: 21.8%
inhibition [15]: 19.4%
inhibition [16]: 16.5%
inhibition [17]: -1%
inhibition [18]: 10.9%
inhibition [19]: 12.5%
IC50 [20]: 0.0059 µM (active)
